The source of these data is patent US6337333B1, “Method of treating autoimmune disease with fludarabine-5′-monophosphate” (priority 1992, dated 2002).

Type in all cases: cell-based, human
The test system of test [1] is CD20, CD20/CD5 and CD3/CD5 lymphocyte subsets. The test can be described thus: Flowcytometric phenotype of lymphocyte subsets in SAC + rIL-2 cultures. As to conditions: for effect on relative percent of CD20, CD20/CD5 and CD3/CD5 staining cells: 5 day SAC + rIL-2 culture, FIG. 4; for CD20, % Viable (% Total) / CD20/5, % Viable (% Total): 5 day culture, 1.0 μg/ml FLP + SAC/rIL-2 (50 μ/ml); for CD20/CD5 subpopulations: end of 5 and 10 day culture periods, drug dose dependent, data not shown. How it is done: Approximately 5×10^5−1×10^6 PBMC, enriched T, or B lymphocytes were cultured in 1 ml of S-10 in Falcon 10×75 mm capped polypropylene tissue culture tubes (Falcon #2063) for the appropriate times at 37° C. in a humidified 5% CO2/air atmosphere. Recombinant IL-2 (rIL-2) was used at 50 U/ml and SAC was at a final concentration of {fraction (1/60,000)}. The mitogens phytohemagglutinin (PHA-P) (Pharmacia, #27-3707-01, Uppsala, Sweden) and pokeweed mitogen (PWM, Pharmacia, #27-3702-01) were used at 5 μg/ml and 10 μg/ml, respectively.
Cells were washed once in citrate buffered saline (C-BSS) and 10^5-10^6 cells per sample were aliquoted for staining. For direct immunofluorescence, […] of either FITC- or PC-conjugated CD-specific mouse monoclonal antibody (Becton Dickinson, San Jose, Calif.) were added to cells in […] of C-BSS and incubated at RT for 30 min. The samples were then washed once in 2 ml C-BSS, resuspended in 0.5 ml C-BSS and acquired on a B/D FACScan Flowcytometer using either Simulset or Lysis II software. During analysis of data files, lymphocytes were discriminated from monocytes and dead cells on the basis of their forward light scatter (FCS) properties and high positivity with anti-CD45 and anti-CD14 (leucogate).
In FIG. 4, at the end of the culture period, the cells were washed, fixed with 1% formalin/PBS, and stained with mouse monoclonals anti-CD20 (PE), anti-CD3 (PE), and anti-CD5 (FITC). The stained samples were analyzed on a FACScan flowcytometer using LYSYS II software. Viable cells were gated and results are expressed as percent of total viable events acquired.
Experiments were conducted that sampled supernatants and cells at 5 and 10 days culture with various amounts of drug.

In a further test the test system is IgG production. In words: Cumulative IgG production in SAC + rIL-2 cultures, EIA. To be noted: for accumulation of IgG: 5 and 10 day SAC rIL-2 cultures, preliminary studies; for effect on IgG production: FIG. 7B. The text has this: In FIG. 7, peripheral blood mononuclear cells (PBMC) enriched for B lymphocytes (BC92; 35% CD19, 33% CD20, 35% CD3) were continuously cultured for 5 days in either medium alone, Staphylococcus aureus Cowan I (SAC) plus interleukin 2 (IL-2) (50 U/ml), or SAC plus IL-2 in the presence of various concentrations of FLP or 2-chlorodeoxyadenosine (2CDA). After 5 days of culture, the supernatants were harvested and serial dilutions of supernatant assayed for huIgM and huIgG by EIA. The presence of IgM rheumatoid factor (IgM-RF) was determined by EIA using the Vectastain Biotin-Streptavidin amplification system. Results are reported as O.D. 405 nm units. Nonspecific binding of neat supernatant to uncoated wells was <0.05% of that seen with the respective coated wells. The results shown are from 1 representative experiment of 4 separate experiments conducted with 4 different sources of packed leukocytes.
In FIG. 8, peripheral blood mononuclear cells (PBMC) enriched for B lymphocytes (BC92, 35% CD19, 33% CD20, 35% CD3) were continuously cultured for 10 days in either medium alone, Staphylococcus aureus Cowan I (SAC) plus interleukin 2 (IL-2) (50 U/ml), or SAC plus IL-2 in the presence of various concentrations of FLP or 2CDA. At the end of the culture period, the supernatants were harvested and serial dilutions assayed for huIgM, huIgG, and IgM-RF by EIA. The cells were phenotyped by flowcytometry. Results are reported as O.D. 405 nm units. Nonspecific binding of neat supernatants to uncoated wells was <0.5% of that seen with parallel coated wells. The results shown are from 1 experiment representative of 3 separate experiments conducted with 3 different sources of packed leukocytes.
In FIG. 9, peripheral blood mononuclear cells (PBMC) (BC93; 22% CD19, 20% CD20, 78% CD3) were continuously cultured for 5 days in either medium alone, Staphylococcus aureus Cowan I (SAC) plus interleukin 2 (IL-2) (50 U/ml) or 20% T cell conditioned medium (Tcm) in the presence of various concentrations of FLP. At the end of the 5 day culture period, the supernatants were harvested and serial dilutions assayed for huIgM, huIgG, and IgM-RF by EIA. The results are reported as O.D. 405 nm units. Nonspecific binding of neat supernatants to uncoated wells was <0.05% of parallel coated wells. The results shown are from one representative experiment.
Immulon-2 (Dynatek Laboratories, #011-010-3450, Chantilly, Va.) flat-bottom 96 well microtiter plates were coated with 100 μl/well of a 2 μg/ml solution of goat F(ab′)2 anti-HuIgM (μ chain, CALTAG #H15100, So. San Francisco, Calif.) or goat F(ab′)2 anti-HuIgG (Fc sp., CALTAG #H10100) in 0.1 M sodium carbonate buffer, pH 9.6 overnight at 4° C. Uncoated wells were incubated with the carbonate buffer alone. The plates were rinsed and then incubated with 100 μl/well of 0.1% BSA/PBS for 1 hr at RT. The plates were rinsed twice with PBS and then incubated for 2 hrs at RT with the respective serial dilutions of culture supernatant and human IgM or IgG standards (Sigma, St.
Louis, Mo.). All dilutions were made in complete S-10 medium (see above). At the end of the incubation period, the plates were rinsed 3 times with PBS/0.05% Tween-20. 100 μl of a 1/500 dilution of goat F(ab′)2 anti-IgM (m) or anti-IgG (H+L) conjugated with alkaline phosphatase (Fisher Biotech, #OB1210-ALPH and #OB1220-ALPH, Pittsburg, Pa.) was added to each well and incubated for 1 hr at RT. The plates were rinsed 3-5 times with PBS/0.05% Tween-20 and 100 μl/well of p-nitrophenyl phosphate substrate (Bio-Rad, Richmond, Calif.) was added and incubated for 30 min. The wells were read at 405 nm with an InterMed NJ-2000 immunoreader. The concentration of sample IgM or IgG was calculated off of a standard curve using the XFROMY linear regression analysis on RS-1 (VAX-VMS). Nonspecific binding was determined from low-dilution samples incubated in parallel in uncoated wells (<0.005% O.D. 405 nm of coated wells). […]

The subject of a further test is T and B lymphocytes. The test can be described thus: Mitogen response of PBMC enriched for T or B lymphocytes continuously cultured with drug. To be noted: cultures continuously exposed to drug. On the procedure: In FIG. 2, peripheral blood mononuclear cells enriched for either T (top) or B (bottom) lymphocytes were continuously cultured with the appropriate concentrations of drug for 3 or 6 days, respectively. The mitogen PHA-P was used at 5 μg/ml and the mitogen PWM was used at 1 μg/ml. The wells were pulsed and harvested as described above.
The adenosine analog 2-chlorodeoxyadenosine (2CDA) has also been reported to have significant cytotoxic and immunosuppressive effects on normal lymphocytes (10,13).

With `Nc1nc(F)nc2c1ncn2[C@@H]1O[C@H](COP(=O)(O)O)[C@@H](O)[C@@H]1O` [FLP, fludarabine-5′-monophosphate], the “effect on relative percent of CD20, CD20/CD5 and CD3/CD5 staining cells” value in test [1] (0.1 μg/ml) is recorded as “minimal effect”; in test [1] (0.5 μg to 5.0 μg/ml) it was “dose-dependent decrease”. For the same compound, the “CD20, % Viable (% Total)” value is listed as 60% in test [1] (IL-6 +) and 64% in test [1] (IL-6 −). Also, the figures for the “CD20/5, % Viable (% Total)” value in test [1] (IL-6 +) and in test [1] (IL-6 −) were 1.9% and 1.8%, respectively. Also, the CD20/CD5 subpopulations result in test [1] was “decreased”. Also, the “effect on IgG accumulation” value in the test with IgG production (0.1 μg/ml, 10 days, FIG. 8B) is “minimal effect”. Further, the “reduction of IgG accumulation” value in the test with IgG production (1 μg, 10 days, FIG. 8B) is listed as 80%; with IgG production (5 μg, 10 days, FIG. 8B), 98%; with IgG production (0.1 and 0.5 μg/ml, PBMC, 5 days, cultures supplemented with T cell conditioned medium, FIG. 9B), “not seen”. In the test with IgG production, the “accumulation of IgG” value is “dose-related decrease”. The “effect on IgG production” value in the test on IgG production (one hundred nanograms per ml, 5 days) is recorded as “minimal effect”. Besides, the “level of drug that suppresses the mitogen response” value in the test on T and B lymphocytes was 0.5 µg/mL.
As for `Nc1nc(Cl)nc2c1ncn2[C@H]1C[C@H](O)[C@@H](CO)O1` [2CDA, 2-chlorodeoxyadenosine], in test [1], the CD20/CD5 subpopulations entry is on record as “decreased”. Moreover, the “accumulation of IgG” value in the test on IgG production is on record as “dose-related decrease”. Also, the “effect on IgG production” value in the test on IgG production (one microgram per ml, 5 days) is “block”. Further, the “effect on IgG accumulation” value with IgG production (one microgram per ml, 10 days) was “block the accumulation”. The “level of drug that suppresses the mitogen response” value in the test with T and B lymphocytes stood at 0.5 µg/mL.
